Holding throughout (assay type): cell-based
The target in test [1] is T1, CB1 receptor (Mus musculus, UniProt P47746).
T1 construct: gene Cnr1
Kind of test: PathHunter β-arrestin CHO-K1 agonist assay (EC80).

Test [2] concerns the target T1, CB1 receptor. Kind of test: PathHunter β-arrestin CHO-K1 antagonist assay vs CP55940.
For test [3], the target named is T2, cannabinoid receptor type 1 (CB1) (Homo sapiens, UniProt P21554).
T2 construct: gene CNR1
Kind of test: cAMP Hunter CHO-K1 CNR1 Gi antagonist assay vs […] CP55940.

Test [4] concerns the target T2, cannabinoid receptor type 1 (CB1). Kind of test: cAMP Hunter CHO-K1 CNR1 Gi agonist assay (inhibition of forskolin-stimulated cAMP).

T2 sequence (P21554 whole entry): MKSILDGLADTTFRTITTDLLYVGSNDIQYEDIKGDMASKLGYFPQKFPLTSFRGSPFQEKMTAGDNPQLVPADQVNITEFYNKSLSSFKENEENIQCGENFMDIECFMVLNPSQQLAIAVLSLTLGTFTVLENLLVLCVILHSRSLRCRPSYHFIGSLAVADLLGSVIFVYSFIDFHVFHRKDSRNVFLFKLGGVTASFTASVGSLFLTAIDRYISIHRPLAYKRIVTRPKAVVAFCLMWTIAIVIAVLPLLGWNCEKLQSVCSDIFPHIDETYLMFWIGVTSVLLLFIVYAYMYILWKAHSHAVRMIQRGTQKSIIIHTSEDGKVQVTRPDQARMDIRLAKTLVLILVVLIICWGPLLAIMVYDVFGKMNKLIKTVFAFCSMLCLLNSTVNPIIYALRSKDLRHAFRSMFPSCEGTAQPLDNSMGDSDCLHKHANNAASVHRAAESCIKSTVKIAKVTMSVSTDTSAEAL
T1 sequence (P47746 whole entry): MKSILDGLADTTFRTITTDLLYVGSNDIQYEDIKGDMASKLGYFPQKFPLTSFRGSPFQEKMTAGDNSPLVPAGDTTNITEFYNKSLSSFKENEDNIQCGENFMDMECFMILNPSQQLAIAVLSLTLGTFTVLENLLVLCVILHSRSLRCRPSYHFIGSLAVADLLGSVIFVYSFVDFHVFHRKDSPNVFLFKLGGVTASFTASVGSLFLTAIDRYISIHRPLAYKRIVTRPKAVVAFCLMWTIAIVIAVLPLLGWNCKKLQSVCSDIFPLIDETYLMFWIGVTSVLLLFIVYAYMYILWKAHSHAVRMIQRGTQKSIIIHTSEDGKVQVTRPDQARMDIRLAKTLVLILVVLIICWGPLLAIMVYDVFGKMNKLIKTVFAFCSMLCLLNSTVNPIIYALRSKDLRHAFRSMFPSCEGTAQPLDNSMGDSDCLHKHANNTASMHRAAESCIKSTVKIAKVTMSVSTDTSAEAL

`CCCCCCC(C)(C)c1ccc([C@@H]2C[C@H](O)CC[C@H]2CCCO)c(O)c1` (racemic) [CP55940] yielded an EC80 on CB1 receptor [1] of 0.0115 µM.
`Cc1c(C(=O)NN2CCOCC2)nn(-c2ccc(Cl)cc2Cl)c1-c1ccc(I)cc1` [AM281] came in with a half-inhibitory concentration (IC50) on CB1 receptor [2] of 40 nM.
Consider `Cc1c(C(=O)NN2CCCCC2)nn(-c2ccc(Cl)cc2Cl)c1-c1ccc(I)cc1` [AM251], for which, in test [3], the “cAMP Hunter CHO-K1 CNR1 Gi antagonist assay vs 1.2 nM CP55940” value was “the antagonist/inverse agonist of CB1, AM251, completely diminished the agonist signal of CP55940”.
Take `C=C(C)[C@@H]1CC[C@](C)(O)[C@H]2Oc3cc(CCCCC)cc(O)c3[C@@H]12` [S-CBE]: the 50% effective concentration (EC50) in test [4] is 3.72 µM.

One may read the EC80 as the concentration needed for an effect of 80%. As a reminder, the IC50 is the concentration that inhibits the measured activity by half. A low value points to inhibition by little substance. What is called EC50 is the concentration at which the effect is half-maximal. Lower therefore signals a more potent agent.
